Results published in patent US11229599B2, “Implant compositions for the unidirectional delivery of therapeutic compounds to the brain” (Board of Regents, the University of Texas System, priority 2015, dated 2022).

Assay: Differential scanning calorimetry, physical state of APAP in glycerol behenate
Type: physicochemical
Conditions: FIG. 6; 5% APAP+95% glycerol behenate, physical blend and melt mix
Description: Differential scanning calorimetry testing was performed using a TA Thermal Analyzer (Model DSC Q20, TA Instruments, New Castle, Del., US). The temperature was calibrated with an indium standard. Sample size was about 5 mg and a temperature ramp of 10° C. per minute was used. Universal Analysis 2000 data analysis software was used for data analysis. Inflection point method was used for the analysis of the glass transition temperature. The melting temperature is defined as the intersection of the extension of the baseline with the tangent at the inflection point of the curve.

- physical state of APAP in glycerol behenate: dispersed as crystalline particles
Structure (SMILES): CC(=O)Nc1ccc(O)cc1 [APAP, acetaminophen]
